The values below come from US7977313B2, “Methods and compositions for promoting localization of pharmaceutically active agents to bone” (Affinergy, Inc., priority 2007, dated 2011).

Assay [1] has as its target demineralized bone matrix (DBM). The assay is described as follows: Biotinylated peptide binding to demineralized bone matrix (ELISA-type, streptavidin-alkaline phosphatase/pNPP). Set-up: species or system human. The method, then:
Relative binding strengths of the peptides to bone, also used as a measure of binding specificity, were determined by testing serial dilutions of the peptide for binding to bone, as represented by DBM. Plotting the absorbance observed across the concentration range for each peptide sequence yielded a binding curve of the peptides to its target substrate from which can be determined an EC50. The goal of the screenings and selections was to identify one or more peptides that bind to the selected substrate with binding specificity, with an EC50 of less than or equal to about 10 μM, and for some embodiments, in the nanomolar range (<1 μM).
As a specific example, DBM was placed in a microtiter plate at a concentration of 3 mg equivalents per well, and then the wells were blocked with buffer containing 1% BSA for 1 hour at room temperature. The buffer containing 1% BSA was then aspirated from each well, and added to the wells were the serial dilutions of biotinylated peptide. The microtiter plates were incubated for 1 hour at room temperature on a plate shaker. The DBM was then allowed to settle, and the buffer was then aspirated from the wells. The DBM was washed three times with buffer-T, and then streptavidin-alkaline phosphatase was added. The microtiter plates were incubated for 1 hour at room temperature on a plate shaker. The DBM was then allowed to settle, and the buffer was then aspirated from the wells. The DBM was washed three times with buffer-T, pNPP (p-nitrophenyl phosphate) was used to develop the assay, and the absorbance was recorded at 405 nm. An estimate of the relative affinity (binding specificity, EC50) of a peptide for bone can be made by determining the concentration of peptide that gives one-half the maximal signal in the assay.
Example 1 illustrates methods to determine the relative binding strengths of peptide to bone. […] A biotin molecule was linked to the C-terminal lysine. Also shown in Table 3 are the relative binding strengths expressed as EC50 (μM) to bone as represented by DBM of human origin. It is noted that the EC50 values were the same or substantially similar when DBM of rabbit origin was used.
Relative binding strength embodiments of the compositions to bone, also used as a measure of binding specificity, were determined by testing serial dilutions of the composition for binding to bone, as described in Example 1 Section B. Plotting the absorbance observed across the concentration range for each composition yielded a binding curve and rough dissociation constant of the composition for bone. Similar to a peptide having binding specificity for bone from which the composition is made, one property of the composition embodiments is that they bind to bone with binding specificity as measured by an EC50 of less than or equal to about 10 μM, and for some embodiments, in the nanomolar range (<1 μM). Using the methods outlined in Example 1B herein, assayed were the relative binding strengths of […] illustrative composition embodiments which include the amino acid sequences shown in SEQ ID NOs: 137, 138, 139, 140, 141 & 142, see Table 7, and synthesized to include a C-terminal amino linker which was biotinylated to facilitate determination of the relative binding strengths to bone. Shown in Table 8 are the relative binding strengths of composition embodiments to bone, as represented by DBM, expressed as EC50 (in μM).
On the technique in general: An ELISA detects its analyte on a solid surface through an enzyme-linked reagent.

The target of a further assay is cancellous bone (CNB). The assay is described as follows: Biotinylated peptide binding to cancellous bone. The procedure:
(§1) Relative binding strengths of the peptides to bone, also used as a measure of binding specificity, were determined by testing serial dilutions of the peptide for binding to bone, as represented by DBM. Plotting the absorbance observed across the concentration range for each peptide sequence yielded a binding curve of the peptides to its target substrate from which can be determined an EC50. The goal of the screenings and selections was to identify one or more peptides that bind to the selected substrate with binding specificity, with an EC50 of less than or equal to about 10 μM, and for some embodiments, in the nanomolar range (<1 μM). […] As a specific example, DBM was placed in a microtiter plate at a concentration of 3 mg equivalents per well, and then the wells were blocked with buffer containing 1% BSA for 1 hour at room temperature. The buffer containing 1% BSA was then aspirated from each well, and added to the wells were the serial dilutions of biotinylated peptide. The microtiter plates were incubated for 1 hour at room temperature on a plate shaker. The DBM was then allowed to settle, and the buffer was then aspirated from the wells. The DBM was washed three times with buffer-T, and then streptavidin-alkaline phosphatase was added. The microtiter plates were incubated for 1 hour at room temperature on a plate shaker. The DBM was then allowed to settle, and the buffer was then aspirated from the wells. The DBM was washed three times with buffer-T, pNPP (p-nitrophenyl phosphate) was used to develop the assay, and the absorbance was recorded at 405 nm. An estimate of the relative affinity (binding specificity, EC50) of a peptide for bone can be made by determining the concentration of peptide that gives one-half the maximal signal in the assay. Using the methodology illustrated in Example 1, the peptides illustrated in Table 3 were also tested for relative binding strength to demineralized cortical bone, and to cancellous bone, additional evidence of binding specificity for bone.

Assay [2] has as its target demineralized cortical bone (DCB). The assay is described as follows: Biotinylated peptide binding to demineralized cortical bone. The procedure:
as §1

[3] abbreviates: DBM of human origin, biotinylated peptide, read-out: Binding specificity for bone (e.g., DBM) EC50.
Setting [4] is: demineralized bone matrix, read-out: EC50 (μM) for DBM.
Setting [5] is: bone as represented by DBM, biotinylated composition, read-out: Binding specificity for bone EC50 (compositions X1-J-X2).

Where two headings read alike, the source gives them in different places. Where a SMILES comes first, the peptide text is derived from it. Where no end group is shown, it is not given here. [ ]: non-standard residue; d: D form. The star is where a group is joined. Biotin = O=C1N[C@H]2[C@H](CS[C@H]2CCCCC(=O)*)N1; PEG10 = NCCOCCOCCOCCOCCOCCOCCOCCOCCOCCOCCC(=O)O

Regarding `CC[C@H](C)[C@H](NC(=O)[C@@H](N)CO)C(=O)N[C@@H](Cc1ccccc1)C(=O)N[C@@H](CO)C(=O)N[C@H](C(=O)N[C@@H](Cc1c[nH]c2ccccc12)C(=O)N[C@@H](CC(N)=O)C(=O)N1CCC[C@H]1C(=O)N[C@@H](Cc1c[nH]c2ccccc12)C(=O)N[C@@H](CO)C(=O)N1CCC[C@H]1C(=O)N[C@@H](Cc1ccc(O)cc1)C(=O)N[C@@H](CO)C(=O)N[C@H](C(=O)N[C@@H](CO)C(=O)N[C@@H](CCCNC(=N)N)C(=O)NCC(=O)N[C@@H](CO)C(=O)N[C@@H](CO)C(=O)NCC(=O)N[C@@H](CCCCNC(=O)CCCC[C@@H]1SC[C@@H]2NC(=O)N[C@@H]21)C(=O)O)C(C)C)[C@@H](C)O` [compound 40] (H-SIFSTWNPWSPYSVSRGSSGK(Biotin)-OH), the EC50 (in assay [1] (setting [3]); in assay [1] (setting [4]); on cancellous bone (CNB); in assay [2]) was under 1 µM throughout.

Turning to `C[C@H](NC(=O)CNC(=O)[C@H](CO)NC(=O)CNC(=O)[C@H](Cc1c[nH]c2ccccc12)NC(=O)[C@H](Cc1c[nH]c2ccccc12)NC(=O)[C@H](Cc1c[nH]c2ccccc12)NC(=O)[C@H](CO)NC(=O)CNC(=O)[C@H](Cc1ccccc1)NC(=O)[C@@H](N)CO)C(=O)N[C@@H](C)C(=O)N[C@@H](CO)C(=O)N[C@@H](CO)C(=O)N[C@@H](CCCNC(=N)N)C(=O)NCC(=O)N[C@@H](CO)C(=O)N[C@@H](CO)C(=O)NCC(=O)N[C@@H](CCCCNC(=O)CCCC[C@@H]1SC[C@@H]2NC(=O)N[C@@H]21)C(=O)O` [compound 42] (H-SFGSWWWGSGAASSRGSSGK(Biotin)-OH), the EC50 (in general, the midpoint of the concentration-response curve) in assay [1] (setting [3]) was under 0.1 µM; in assay [1] (setting [4]) it was under 0.1 µM; at cancellous bone (CNB) it was under 0.5 µM; in assay [2] it was under 0.1 µM.

For the compound “SWWGFWNGSAAPVWSRGSSGAGALGFPLKGEVVEGWAGSSGK(Biotin) [compound 139]”, the EC50 in assay [1] (setting [5]) was under 0.5 µM.

For `CC(C)[C@H](NC(=O)[C@@H]1CCCN1C(=O)[C@H](C)NC(=O)[C@H](C)NC(=O)[C@H](CO)NC(=O)CNC(=O)[C@H](CC(N)=O)NC(=O)[C@H](Cc1c[nH]c2ccccc12)NC(=O)[C@H](Cc1ccccc1)NC(=O)CNC(=O)[C@H](Cc1c[nH]c2ccccc12)NC(=O)[C@H](Cc1c[nH]c2ccccc12)NC(=O)[C@@H](N)CO)C(=O)N[C@@H](Cc1c[nH]c2ccccc12)C(=O)N[C@@H](CO)C(=O)N[C@@H](CCCNC(=N)N)C(=O)NCC(=O)N[C@@H](CO)C(=O)N[C@@H](CO)C(=O)NCC(=O)N[C@@H](CCCCNC(=O)CCCC[C@@H]1SC[C@@H]2NC(=O)N[C@@H]21)C(=O)O` [compound 41] (H-SWWGFWNGSAAPVWSRGSSGK(Biotin)-OH), the EC50 was under 0.1 µM in assay [1] (setting [3]), under 0.1 µM in assay [1] (setting [4]), at most 0.1 µM at cancellous bone (CNB) and under 0.1 µM in assay [2].

In the case of “SFGSWWWGSGAASSRGSSGGGALGFPLKGEVVEGWAGSSGK(Biotin) [compound 140]”, the EC50 in assay [1] (setting [5]) was under 0.5 µM.

For the compound `CC(C)C[C@H](NC(=O)[C@H](CO)NC(=O)[C@H](CO)NC(=O)[C@H](Cc1ccccc1)NC(=O)[C@H](C)NC(=O)[C@H](CCC(=O)O)NC(=O)[C@H](Cc1c[nH]c2ccccc12)NC(=O)[C@H](C)NC(=O)CNC(=O)CNC(=O)CNC(=O)CCOCCOCCOCCOCCOCCOCCOCCOCCOCCOCCNC(=O)CNC(=O)[C@H](CCCNC(=N)N)NC(=O)[C@H](CO)NC(=O)[C@H](CO)NC(=O)[C@H](C)NC(=O)[C@H](C)NC(=O)CNC(=O)[C@H](CO)NC(=O)CNC(=O)[C@H](Cc1c[nH]c2ccccc12)NC(=O)[C@H](Cc1c[nH]c2ccccc12)NC(=O)[C@H](Cc1c[nH]c2ccccc12)NC(=O)[C@H](CO)NC(=O)CNC(=O)[C@H](Cc1ccccc1)NC(=O)[C@@H](N)CO)C(=O)N[C@@H](CO)C(=O)NCC(=O)N[C@@H](CO)C(=O)N[C@@H](CCCNC(=N)N)C(=O)N[C@H](C(=O)NCC(=O)N[C@@H](CO)C(=O)N[C@@H](CO)C(=O)NCC(=O)N[C@@H](CCCCNC(=O)CCCC[C@@H]1SC[C@@H]2NC(=O)N[C@@H]21)C(N)=O)C(C)C` [compound 141] (H-SFGSWWWGSGAASSRG[PEG10]GGGAWEAFSSLSGSRVGSSGK(Biotin)-NH2; N-terminus and C-terminus assumed), the EC50 in assay [1] (setting [5]) is under 0.5 µM.

On to `CC(C)C[C@H](NC(=O)[C@H](CO)NC(=O)[C@H](CO)NC(=O)[C@H](Cc1ccccc1)NC(=O)[C@H](C)NC(=O)[C@H](CCC(=O)O)NC(=O)[C@H](Cc1c[nH]c2ccccc12)NC(=O)[C@H](C)NC(=O)CNC(=O)[C@H](C)NC(=O)CCOCCOCCOCCOCCOCCOCCOCCOCCOCCOCCNC(=O)CNC(=O)[C@H](CCCNC(=N)N)NC(=O)[C@H](CO)NC(=O)[C@H](CO)NC(=O)[C@H](C)NC(=O)[C@H](C)NC(=O)CNC(=O)[C@H](CO)NC(=O)CNC(=O)[C@H](Cc1c[nH]c2ccccc12)NC(=O)[C@H](Cc1c[nH]c2ccccc12)NC(=O)[C@H](Cc1c[nH]c2ccccc12)NC(=O)[C@H](CO)NC(=O)CNC(=O)[C@H](Cc1ccccc1)NC(=O)[C@@H](N)CO)C(=O)N[C@@H](CO)C(=O)NCC(=O)N[C@@H](CO)C(=O)N[C@@H](CCCNC(=N)N)C(=O)N[C@H](C(=O)NCC(=O)N[C@@H](CO)C(=O)N[C@@H](CO)C(=O)NCC(=O)N[C@@H](CCCCNC(=O)CCCC[C@@H]1SC[C@@H]2NC(=O)N[C@@H]21)C(N)=O)C(C)C` [compound 142] (H-SFGSWWWGSGAASSRG[PEG10]AGAWEAFSSLSGSRVGSSGK(Biotin)-NH2; N-terminus and C-terminus assumed), for which the EC50 in assay [1] (setting [5]) is under 0.5 µM.

Regarding `CC(C)C[C@H](NC(=O)[C@H](CO)NC(=O)[C@H](CO)NC(=O)[C@H](Cc1ccccc1)NC(=O)[C@H](C)NC(=O)[C@H](CCC(=O)O)NC(=O)[C@H](Cc1c[nH]c2ccccc12)NC(=O)[C@H](C)NC(=O)CNC(=O)[C@H](C)NC(=O)CNC(=O)[C@H](CO)NC(=O)[C@H](CO)NC(=O)CNC(=O)[C@H](CCCNC(=N)N)NC(=O)[C@H](CO)NC(=O)[C@H](Cc1c[nH]c2ccccc12)NC(=O)[C@@H](NC(=O)[C@@H]1CCCN1C(=O)[C@H](C)NC(=O)[C@H](C)NC(=O)[C@H](CO)NC(=O)CNC(=O)[C@H](CC(N)=O)NC(=O)[C@H](Cc1c[nH]c2ccccc12)NC(=O)[C@H](Cc1ccccc1)NC(=O)CNC(=O)[C@H](Cc1c[nH]c2ccccc12)NC(=O)[C@H](Cc1c[nH]c2ccccc12)NC(=O)[C@@H](N)CO)C(C)C)C(=O)N[C@@H](CO)C(=O)NCC(=O)N[C@@H](CO)C(=O)N[C@@H](CCCNC(=N)N)C(=O)N[C@H](C(=O)NCC(=O)N[C@@H](CO)C(=O)N[C@@H](CO)C(=O)NCC(=O)N[C@@H](CCCCNC(=O)CCCC[C@@H]1SC[C@@H]2NC(=O)N[C@@H]21)C(=O)O)C(C)C` [compound 138] (H-SWWGFWNGSAAPVWSRGSSGAGAWEAFSSLSGSRVGSSGK(Biotin)-OH; N-terminus and C-terminus assumed), the EC50 in assay [1] (setting [5]) is under 0.1 µM.

“SWWGFWNGSAAPVWSRGSSESAGAWEAFSSLSGSRVGSSGK(Biotin) [compound 137]”: in assay [1] (setting [5]), the EC50 was under 0.5 µM.
